Values of other authors in patent US8945626B2, “Preparation of pharmaceutical compositions” (priority 2006, dated 2015).

## CC(=O)Nc1ccc(O)cc1 [Paracetamol, 4-Acetamidophenol]
  solubility in cold water: very slightly soluble
